Source: the supplement of paper PMC10307832

Legend:
Assay in all cases: relative viability (nuclei count vs DMSO), 5 days (fraction); higher = more cells survive
[1] = system: IA-LM
Summary of the method: (§1)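 The day after seeding in 1536-well plates, lung cancer cell lines were treated by pin tool with a single drug, or with a fixed anchor-drug dose together with five library-drug doses (not always all listed) in √10 steps. After 5 days, a combined fix-and-stain solution (final 0.05% Triton X-100, 1% formaldehyde, 1 ug/ml Hoechst) was added. Nuclei counted on 4× images gave relative viability as treated counts over vehicle counts, reported as the median of duplicate plates.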

[2] = system: NCI-H1623
Summary of the method: as §1

[3] = system: NCI-H1993
Summary of the method: as §1

[4] = system: EBC-1
Summary of the method: as §1

[5] = system: A549
Summary of the method: as §1

[6] = system: NCI-H1299
Summary of the method: as §1

[7] = system: NCI-H596
Summary of the method: as §1

[8] = system: NCI-H23
Summary of the method: as §1

[9] = system: Calu-6
Summary of the method: as §1

[10] = system: NCI-H1703
Summary of the method: as §1

[11] = system: NCI-H522
Summary of the method: as §1

CC1(C)CCC(c2ccc(Cl)cc2)=C(CN2CCN(c3ccc(C(=O)NS(=O)(=O)c4ccc(N[C@H](CCN5CCOCC5)CSc5ccccc5)c(S(=O)(=O)C(F)(F)F)c4)cc3)CC2)C1 [Navitoclax] + COc1cc2c(Oc3ccc(NC(=O)C4(C(=O)Nc5ccc(F)cc5)CC4)cc3F)ccnc2cc1OCCCN1CCOCC1 [Foretinib] (partner 0.25 µM)
relative viability ([1]; first compound 0.005 µM): 1.18 | relative viability ([1]; first compound 0.01581 µM): 1.2 | relative viability ([1]; first compound 0.05 µM): 1.36 | relative viability ([1]; first compound 0.1581 µM): 1.27 | relative viability ([1]; first compound 0.5 µM): 1.18 | relative viability ([2]; first compound 0.005 µM): 0.863 | relative viability ([2]; first compound 0.01581 µM): 0.981 | relative viability ([2]; first compound 0.05 µM): 0.781 | relative viability ([2]; first compound 0.1581 µM): 0.842 | relative viability ([2]; first compound 0.5 µM): 0.811 | relative viability ([3]; first compound 0.005 µM): 0.854 | relative viability ([3]; first compound 0.01581 µM): 0.938 | relative viability ([3]; first compound 0.05 µM): 0.687 | relative viability ([3]; first compound 0.1581 µM): 0.839 | relative viability ([3]; first compound 0.5 µM): 0.862 | relative viability ([4]; first compound 0.005 µM): 0.0939 | relative viability ([4]; first compound 0.01581 µM): 0.118 | relative viability ([4]; first compound 0.05 µM): 0.113 | relative viability ([4]; first compound 0.1581 µM): 0.103 | relative viability ([4]; first compound 0.5 µM): 0.0895 | relative viability ([5]; first compound 0.005 µM): 0.887 | relative viability ([5]; first compound 0.01581 µM): 1.03 | relative viability ([5]; first compound 0.05 µM): 0.994 | relative viability ([5]; first compound 0.1581 µM): 1.02 | relative viability ([5]; first compound 0.5 µM): 0.916 | relative viability ([6]; first compound 0.005 µM): 1.1 | relative viability ([6]; first compound 0.01581 µM): 1.1 | relative viability ([6]; first compound 0.05 µM): 1.12 | relative viability ([6]; first compound 0.1581 µM): 1.11 | relative viability ([6]; first compound 0.5 µM): 1.11 | relative viability ([7]; first compound 0.005 µM): 1.08 | relative viability ([7]; first compound 0.01581 µM): 0.853 | relative viability ([7]; first compound 0.1581 µM): 0.839 | relative viability ([7]; first compound 0.5 µM): 0.917 | relative viability ([8]; first compound 0.005 µM): 1.04 | relative viability ([8]; first compound 0.01581 µM): 1.1 | relative viability ([8]; first compound 0.05 µM): 1.08 | relative viability ([8]; first compound 0.1581 µM): 0.768 | relative viability ([8]; first compound 0.5 µM): 0.882 | relative viability ([9]; first compound 0.005 µM): 0.852 | relative viability ([9]; first compound 0.01581 µM): 0.921 | relative viability ([9]; first compound 0.05 µM): 0.937 | relative viability ([9]; first compound 0.1581 µM): 0.916 | relative viability ([9]; first compound 0.5 µM): 0.894 | relative viability ([10]; first compound 0.005 µM): 0.472 | relative viability ([10]; first compound 0.01581 µM): 0.369 | relative viability ([10]; first compound 0.05 µM): 0.416 | relative viability ([10]; first compound 0.1581 µM): 0.337 | relative viability ([10]; first compound 0.5 µM): 0.353

Oc1nc(-c2ccc(C(F)(F)F)cc2)nc2c1CSCC2 [XAV939] + N=C(N)NC(=N)NCCc1ccccc1 [Phenformin] (partner 250 µM)
relative viability ([2]; first compound 0.08 µM): 0.578 | relative viability ([2]; first compound 0.253 µM): 0.555 | relative viability ([2]; first compound 0.8 µM): 0.59 | relative viability ([2]; first compound 2.53 µM): 0.591 | relative viability ([3]; first compound 0.08 µM): 0.479 | relative viability ([3]; first compound 0.253 µM): 0.526 | relative viability ([3]; first compound 0.8 µM): 0.524 | relative viability ([3]; first compound 2.53 µM): 0.511 | relative viability ([5]; first compound 0.08 µM): 0.136 | relative viability ([5]; first compound 0.253 µM): 0.218 | relative viability ([5]; first compound 0.8 µM): 0.129 | relative viability ([5]; first compound 2.53 µM): 0.175 | relative viability ([7]; first compound 0.08 µM): 0.699 | relative viability ([7]; first compound 0.253 µM): 0.673 | relative viability ([7]; first compound 0.8 µM): 0.764 | relative viability ([7]; first compound 2.53 µM): 0.774 | relative viability ([8]; first compound 0.08 µM): 0.892 | relative viability ([8]; first compound 0.253 µM): 0.722 | relative viability ([8]; first compound 0.8 µM): 0.613 | relative viability ([8]; first compound 2.53 µM): 0.806 | relative viability ([11]; first compound 0.08 µM): 0.599 | relative viability ([11]; first compound 0.253 µM): 0.707 | relative viability ([11]; first compound 0.8 µM): 0.594 | relative viability ([11]; first compound 2.53 µM): 0.599

NC(=O)Nc1cc(-c2cccc(F)c2)sc1C(=O)N[C@H]1CCCNC1 [AZD7762] + N=C(N)NC(=N)NCCc1ccccc1 [Phenformin] (partner 250 µM)
relative viability ([2]; first compound 0.01 µM): 0.557 | relative viability ([2]; first compound 0.03162 µM): 0.606 | relative viability ([2]; first compound 0.1 µM): 0.594 | relative viability ([2]; first compound 0.3162 µM): 0.632 | relative viability ([2]; first compound 1 µM): 0.497 | relative viability ([3]; first compound 0.01 µM): 0.553 | relative viability ([3]; first compound 0.03162 µM): 0.504 | relative viability ([3]; first compound 0.1 µM): 0.53 | relative viability ([3]; first compound 0.3162 µM): 0.428 | relative viability ([3]; first compound 1 µM): 0.502 | relative viability ([5]; first compound 0.01 µM): 0.167 | relative viability ([5]; first compound 0.03162 µM): 0.183 | relative viability ([5]; first compound 0.1 µM): 0.187 | relative viability ([5]; first compound 0.3162 µM): 0.188 | relative viability ([5]; first compound 1 µM): 0.184 | relative viability ([7]; first compound 0.01 µM): 0.701 | relative viability ([7]; first compound 0.03162 µM): 0.836 | relative viability ([7]; first compound 0.1 µM): 0.641 | relative viability ([7]; first compound 0.3162 µM): 0.809 | relative viability ([7]; first compound 1 µM): 0.673 | relative viability ([8]; first compound 0.01 µM): 0.813 | relative viability ([8]; first compound 0.03162 µM): 0.831 | relative viability ([8]; first compound 0.1 µM): 0.808 | relative viability ([8]; first compound 0.3162 µM): 0.654 | relative viability ([8]; first compound 1 µM): 0.434 | relative viability ([11]; first compound 0.01 µM): 0.668 | relative viability ([11]; first compound 0.03162 µM): 0.711 | relative viability ([11]; first compound 0.1 µM): 0.635 | relative viability ([11]; first compound 0.3162 µM): 0.752 | relative viability ([11]; first compound 1 µM): 0.597

C=C1C(=O)O[C@@H](CCCCCCCC)[C@@H]1C(=O)O [C-75] + N=C(N)NC(=N)NCCc1ccccc1 [Phenformin] (partner 250 µM)
relative viability ([2]; first compound 0.08 µM): 0.613 | relative viability ([2]; first compound 0.253 µM): 0.652 | relative viability ([2]; first compound 0.8 µM): 0.584 | relative viability ([2]; first compound 2.53 µM): 0.542 | relative viability ([2]; first compound 8 µM): 0.578 | relative viability ([3]; first compound 0.08 µM): 0.528 | relative viability ([3]; first compound 0.253 µM): 0.574 | relative viability ([3]; first compound 0.8 µM): 0.476 | relative viability ([3]; first compound 2.53 µM): 0.46 | relative viability ([3]; first compound 8 µM): 0.506 | relative viability ([5]; first compound 0.08 µM): 0.185 | relative viability ([5]; first compound 0.253 µM): 0.211 | relative viability ([5]; first compound 0.8 µM): 0.186 | relative viability ([5]; first compound 2.53 µM): 0.119 | relative viability ([5]; first compound 8 µM): 0.121 | relative viability ([7]; first compound 0.08 µM): 0.891 | relative viability ([7]; first compound 0.253 µM): 0.766 | relative viability ([7]; first compound 0.8 µM): 0.846 | relative viability ([7]; first compound 2.53 µM): 0.513 | relative viability ([7]; first compound 8 µM): 0.717 | relative viability ([8]; first compound 0.08 µM): 0.775 | relative viability ([8]; first compound 0.253 µM): 0.758 | relative viability ([8]; first compound 0.8 µM): 0.773 | relative viability ([8]; first compound 2.53 µM): 0.582 | relative viability ([8]; first compound 8 µM): 0.643 | relative viability ([11]; first compound 0.08 µM): 0.61 | relative viability ([11]; first compound 0.253 µM): 0.382 | relative viability ([11]; first compound 0.8 µM): 0.614 | relative viability ([11]; first compound 8 µM): 0.582

NC(=O)Nc1cc(-c2cccc(F)c2)sc1C(=O)N[C@H]1CCCNC1 [AZD7762] + COc1cc2c(Oc3ccc(NC(=O)C4(C(=O)Nc5ccc(F)cc5)CC4)cc3F)ccnc2cc1OCCCN1CCOCC1 [Foretinib] (partner 0.25 µM)
relative viability ([1]; first compound 0.01 µM): 1.44 | relative viability ([1]; first compound 0.03162 µM): 1.29 | relative viability ([1]; first compound 0.1 µM): 1.48 | relative viability ([1]; first compound 0.3162 µM): 1.29 | relative viability ([1]; first compound 1 µM): 0.59 | relative viability ([2]; first compound 0.01 µM): 0.874 | relative viability ([2]; first compound 0.03162 µM): 0.821 | relative viability ([2]; first compound 0.1 µM): 1 | relative viability ([2]; first compound 0.3162 µM): 0.96 | relative viability ([2]; first compound 1 µM): 0.664 | relative viability ([3]; first compound 0.01 µM): 0.772 | relative viability ([3]; first compound 0.03162 µM): 0.878 | relative viability ([3]; first compound 0.1 µM): 0.801 | relative viability ([3]; first compound 0.3162 µM): 0.821 | relative viability ([3]; first compound 1 µM): 0.708 | relative viability ([4]; first compound 0.01 µM): 0.101 | relative viability ([4]; first compound 0.03162 µM): 0.0952 | relative viability ([4]; first compound 0.1 µM): 0.105 | relative viability ([4]; first compound 0.3162 µM): 0.119 | relative viability ([4]; first compound 1 µM): 0.116 | relative viability ([5]; first compound 0.01 µM): 1.02 | relative viability ([5]; first compound 0.03162 µM): 0.928 | relative viability ([5]; first compound 0.1 µM): 0.942 | relative viability ([5]; first compound 0.3162 µM): 0.837 | relative viability ([5]; first compound 1 µM): 0.259 | relative viability ([6]; first compound 0.01 µM): 1.09 | relative viability ([6]; first compound 0.03162 µM): 1.15 | relative viability ([6]; first compound 0.1 µM): 1.09 | relative viability ([6]; first compound 0.3162 µM): 1.07 | relative viability ([6]; first compound 1 µM): 0.622 | relative viability ([7]; first compound 0.01 µM): 0.993 | relative viability ([7]; first compound 0.03162 µM): 1.04 | relative viability ([7]; first compound 0.1 µM): 1.01 | relative viability ([7]; first compound 0.3162 µM): 0.923 | relative viability ([7]; first compound 1 µM): 0.744 | relative viability ([8]; first compound 0.01 µM): 0.886 | relative viability ([8]; first compound 0.03162 µM): 1.09 | relative viability ([8]; first compound 0.1 µM): 0.976 | relative viability ([8]; first compound 0.3162 µM): 1.11 | relative viability ([8]; first compound 1 µM): 0.366 | relative viability ([9]; first compound 0.01 µM): 0.805 | relative viability ([9]; first compound 0.03162 µM): 0.83 | relative viability ([9]; first compound 0.1 µM): 0.831 | relative viability ([9]; first compound 0.3162 µM): 0.264 | relative viability ([9]; first compound 1 µM): 0.0933 | relative viability ([10]; first compound 0.01 µM): 0.398 | relative viability ([10]; first compound 0.03162 µM): 0.34 | relative viability ([10]; first compound 0.1 µM): 0.348 | relative viability ([10]; first compound 0.3162 µM): 0.292 | relative viability ([10]; first compound 1 µM): 0.174
